Target: T1, RIO kinase 2 (RIOK2) (Homo sapiens, UniProt Q9BVS4)
T1 construct: residues 1–329
Experiment: co-crystal structure ([…] Å) and ITC
Type: binding

T1 sequence (Q9BVS4 1-329): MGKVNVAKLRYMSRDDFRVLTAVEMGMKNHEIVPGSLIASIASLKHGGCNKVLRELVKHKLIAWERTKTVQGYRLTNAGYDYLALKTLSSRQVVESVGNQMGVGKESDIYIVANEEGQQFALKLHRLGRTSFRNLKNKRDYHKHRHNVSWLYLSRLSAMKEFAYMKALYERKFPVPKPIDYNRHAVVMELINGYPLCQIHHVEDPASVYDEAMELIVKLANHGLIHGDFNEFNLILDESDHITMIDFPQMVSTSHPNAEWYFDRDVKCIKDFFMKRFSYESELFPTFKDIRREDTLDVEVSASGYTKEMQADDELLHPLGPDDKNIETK

Kd: 393 nM
Structure (SMILES): O=C(Cc1ccc2ccccc2c1)Nc1ccccn1 [compound 9]
